Source: patent US8138168B1 (Takeda Pharmaceutical Company Limited, priority 2007, dated 2012)

Target: T1, Recombinant human renin (Homo sapiens, UniProt P00797)
T1 construct: isolate the active form (residues 67-406); made in house; host or cells: FreeStyle 293-F cells (transient expression of pcDNA3.1(+)/hREN)
T1 sequence (P00797 67-406): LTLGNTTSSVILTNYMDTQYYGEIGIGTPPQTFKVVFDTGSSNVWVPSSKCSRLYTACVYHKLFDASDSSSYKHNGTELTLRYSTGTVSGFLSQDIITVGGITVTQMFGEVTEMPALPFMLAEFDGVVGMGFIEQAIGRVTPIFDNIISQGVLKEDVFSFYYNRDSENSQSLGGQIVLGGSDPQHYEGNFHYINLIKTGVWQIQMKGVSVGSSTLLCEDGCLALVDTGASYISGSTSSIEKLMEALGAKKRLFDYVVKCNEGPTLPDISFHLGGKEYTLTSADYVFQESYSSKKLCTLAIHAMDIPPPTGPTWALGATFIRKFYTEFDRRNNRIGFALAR
Test: In vitro enzymatic activity assay of renin inhibitors (fluorogenic peptide substrate)
Format: biochemical
Conditions: for IC50: read-out: IC50 of Exemplified Compounds Against Renin
Summary of the method: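 Enzyme: recombinant human renin, 3 nM final, 10 min compound pre-incubation at 37 °C; buffer 50 mM Hepes pH 7.4 with 0.1 mg/mL BSA or extra 2% BSA; 5% DMSO.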

Structure (SMILES) | IC50 | Eutomer / distomer designation of the separated stereoisomers (isomers separated by preparative SFC, more or less active isomer as renin inhibitor)
COCCCn1c([C@@H]2CCCN(C(=O)C[C@H](N)Cc3ccc(-c4ccc(NC(=O)COC)cc4)cc3)C2)nc2ccccc21 [Compound 197, N-(4′-((R)-2-amino-4-((R)-3-(1-(3-methoxypropyl)-1H-benzo[d]imidazol-2-yl)piperidin-1-yl)-4-oxobutyl)biphenyl-4-yl)-2-methoxyacetamide] | < 100 nM | 
COCCCn1c([C@@H]2CCCN(C(=O)C[C@H](N)Cc3cccnc3)C2)nc2ccccc21 [Compound 82, (R)-3-amino-1((R)-3-(1-(3-methoxypropyl)-1H-benzo[d]imidazol-2-yl)piperidin-1-yl)-4-(pyridin-3-yl)butan-1-one] | > 1000 nM | 
COCCCn1c([C@@H]2CCCN(C(=O)[C@@H]3CN(S(=O)(=O)c4ccc(C)cc4C)C[C@H]3N)C2)nc2ccccc21 [Compound 383, ((3R,4S)-4-amino-1-(2,4-dimethylphenylsulfonyl)pyrrolidin-3-yl)((R)-3-(1-(3-methoxypropyl)-1H-benzo[d]imidazol-2-yl)piperidin-1-yl)methanone] | 100 to 1000 nM | 
COCCCn1c([C@@H]2CCCN(C(=O)C[C@H](N)Cc3ccc(-c4ccc(NC(=O)N(C)C)cc4)cc3)C2)nc2ccccc21 [Compound 174, 3-(4′-((R)-2-amino-4-((R)-3-(1-(3-methoxypropyl)-1H-benzo[d]imidazol-2-yl)piperidin-1-yl)-4-oxobutyl)biphenyl-4-yl)-1,1-dimethylurea] | < 100 nM | 
COCCCn1c([C@@H]2CCCN(C(=O)[C@@H]3CN(C(=O)c4ccco4)C[C@H]3N)C2)nc2ccccc21 [Compound 420, ((3R,4S)-4-amino-1-(furan-2-carbonyl)pyrrolidin-3-yl)((R)-3-(1-(3-methoxypropyl)-1H-benzo[d]imidazol-2-yl)piperidin-1-yl)methanone] | > 1000 nM | 
COCCCn1c(C2CCCN(C(=O)CC(N)Cc3ccc4ccccc4c3)C2)nc2ccc(=O)[nH]c21 [Compound 101, (R)-2-(1-(3-amino-4-(naphthalen-2-yl)butanoyl)piperidin-3-yl)-3-(3-methoxypropyl)-3H-imidazo[4,5-b]pyridin-5(4H)-one] | > 1000 nM | 
CCCc1ccccc1NC(=O)NC[C@@H](N)CC(=O)N1CCC[C@@H](c2nc3ccccc3n2CCCOC)C1 [Compound 286, 1-((S)-2-amino-4-((R)-3-(1-(3-methoxypropyl)-1H-benzo[d]imidazol-2-yl)piperidin-1-yl)-4-oxobutyl)-3-(2-propylphenyl)urea] | 100 to 1000 nM | 
COCCCn1c([C@@H]2CCCN(C(=O)C[C@H](N)Cc3ccc4ccccc4c3)C2)nc2ccccc21 [Compound 74, (R)-3-amino-1((R)-3-(1-(3-methoxypropyl)-1H-benzo[d]imidazol-2-yl)piperidin-1-yl)-4-(naphthalen-2-yl)butan-1-one] | < 100 nM | 
Cc1nc2ccccc2n1[C@H]1CCCN(C(=O)C[C@H](N)Cc2ccc3ccccc3c2)C1 [Compound 244, (R)-3-amino-1-((S)-3-(2-methyl-1H-benzo[d]imidazol-1-yl)piperidin-1-yl)-4-(naphthalen-2-yl)butan-1-one] | > 1000 nM | Eutomer
COCCCn1c([C@@H]2CCCN(C(=O)C[C@H](N)c3cccc(OC)c3)C2)nc2ccccc21 [Compound 121] | > 1000 nM | 
COCCCn1c([C@@H]2CCCN(C(=O)[C@@H]3CN(S(=O)(=O)c4cccc(NC(C)=O)c4)C[C@H]3N)C2)nc2ccccc21 [Compound 429, N-(3-((3S,4R)-3-amino-4-((R)-3-(1-(3-methoxypropyl)-1H-benzo[d]imidazol-2-yl)piperidine-1-carbonyl)pyrrolidin-1-ylsulfonyl)phenyl)acetamide] | < 100 nM | 
COCCCn1c([C@@H]2CCCN(C(=O)[C@@H]3CN(S(=O)(=O)c4cc(Br)ccc4OC)C[C@H]3N)C2)nc2ccccc21 [Compound 401, ((3R,4S)-4-amino-1-(5-bromo-2-methoxyphenylsulfonyl)pyrrolidin-3-yl)((R)-3-(1-(3-methoxypropyl)-1H-benzo[d]imidazol-2-yl)piperidin-l-yl)methanone] | > 1000 nM | 
